In PubChem BioAssay AID1845207 (Molecular Pharmacology Branch, DTP, NCI, 2023):
pIC50: −log10 of the molar value. Values joined by “and” are separate entries in the source; they are usually repeats but may differ in a detail not shown here. Equal values may be shown once.

System: NCI-H1876 tumor spheroid viability
Assay: Anticancer human tumor NCI-H1876 cell line growth inhibition;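 note: spheroids exposed to compounds for seven days before the viability read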;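 for viability, T/C: percent of DMSO vehicle control viability so 100% = vehicle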
Conditions: spheroids with HUVEC and MSC; for viability, T/C: stronger effect = lower value
Procedure, shortened: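 Complex tumor spheroids combined malignant cells with endothelial cells and mesenchymal stem cells. DNA-damaging drugs and DNA repair inhibitors were tested alone and in combination, at half-log dilutions down from clinical Cmax (top 10 microM if Cmax unknown), 0.25% DMSO final.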

[1] = curve of first compound, second compound 0.003 µM
[2] = curve of first compound, second compound 0.00949 µM
[3] = curve of first compound, second compound 0.03 µM
[4] = curve of first compound, second compound 0.0949 µM
[5] = curve of first compound, second compound 0.3 µM
[6] = second compound 0.003 µM, first compound 0.0316 µM
[7] = second compound 0.003 µM, first compound 0.1 µM
[8] = second compound 0.003 µM, first compound 0.316 µM
[9] = second compound 0.003 µM, first compound 1 µM
[10] = second compound 0.003 µM, first compound 3.16 µM
[11] = second compound 0.003 µM, first compound 10 µM
[12] = second compound 0.00949 µM, first compound 0.0316 µM
[13] = second compound 0.00949 µM, first compound 0.1 µM
[14] = second compound 0.00949 µM, first compound 0.316 µM
[15] = second compound 0.00949 µM, first compound 1 µM
[16] = second compound 0.00949 µM, first compound 3.16 µM
[17] = second compound 0.00949 µM, first compound 10 µM
[18] = second compound 0.03 µM, first compound 0.0316 µM
[19] = second compound 0.03 µM, first compound 0.1 µM
[20] = second compound 0.03 µM, first compound 0.316 µM
[21] = second compound 0.03 µM, first compound 1 µM
[22] = second compound 0.03 µM, first compound 3.16 µM
[23] = second compound 0.03 µM, first compound 10 µM
[24] = second compound 0.0949 µM, first compound 0.0316 µM
[25] = second compound 0.0949 µM, first compound 0.1 µM
[26] = second compound 0.0949 µM, first compound 0.316 µM
[27] = second compound 0.0949 µM, first compound 1 µM
[28] = second compound 0.0949 µM, first compound 3.16 µM
[29] = second compound 0.0949 µM, first compound 10 µM
[30] = second compound 0.3 µM, first compound 0.0316 µM
[31] = second compound 0.3 µM, first compound 0.1 µM
[32] = second compound 0.3 µM, first compound 0.316 µM
[33] = second compound 0.3 µM, first compound 1 µM
[34] = second compound 0.3 µM, first compound 3.16 µM
[35] = second compound 0.3 µM, first compound 10 µM

With `Cc1sc2c(c1C)C(c1ccc(Cl)cc1)=NC(CC(=O)Nc1ccc(O)cc1)c1nnc(C)n1-2` (stereo not given) + Cn1nnc2c(C(N)=O)ncn2c1=O the pIC50 (curve of first compound, second compound 1 µM) was 7.25, the pIC50 (curve of first compound, second compound 3.16 µM) was 6.75 and the pIC50 (curve of first compound, second compound 10 µM) was 7.05. For the same compound, the pIC50 (curve of first compound, second compound 31.6 µM) was 7.13, the pIC50 (curve of first compound, second compound 100 µM) was 7.63 and the viability, T/C (second compound 1 µM, first compound 0.00949 µM) was 85.6%. For the same compound, the viability, T/C (second compound 1 µM, first compound 0.03 µM) was 56%, the viability, T/C (second compound 1 µM, first compound 0.0949 µM) was 45% and the viability, T/C (second compound 1 µM, first compound 0.3 µM) was 27%. The viability, T/C (second compound 1 µM, first compound 0.949 µM) was 15.7%, the viability, T/C (second compound 1 µM, first compound 3 µM) was 8.48% and the viability, T/C (second compound 3.16 µM, first compound 0.00949 µM) was 84%. The viability, T/C (second compound 3.16 µM, first compound 0.03 µM) was 75.2%, the viability, T/C (second compound 3.16 µM, first compound 0.0949 µM) was 54.2% and the viability, T/C (second compound 3.16 µM, first compound 0.3 µM) was 50.6%. For the same compound, the viability, T/C (second compound 3.16 µM, first compound 0.949 µM) was 15.3%, the viability, T/C (second compound 3.16 µM, first compound 3 µM) was 10.5% and the viability, T/C (second compound 10 µM, first compound 0.00949 µM) was 87.3%. The viability, T/C (second compound 10 µM, first compound 0.03 µM) was 62.2%, the viability, T/C (second compound 10 µM, first compound 0.0949 µM) was 55.1% and the viability, T/C (second compound 10 µM, first compound 0.3 µM) was 31%. The viability, T/C (second compound 10 µM, first compound 0.949 µM) was 15.1%, the viability, T/C (second compound 10 µM, first compound 3 µM) was 9% and the viability, T/C (second compound 31.6 µM, first compound 0.00949 µM) was 87.3%. For the same compound, the viability, T/C (second compound 31.6 µM, first compound 0.03 µM) was 75.6%, the viability, T/C (second compound 31.6 µM, first compound 0.0949 µM) was 39.4% and the viability, T/C (second compound 31.6 µM, first compound 0.3 µM) was 25.6%. It also gave a viability, T/C (second compound 31.6 µM, first compound 0.949 µM) of 13.2%, a viability, T/C (second compound 31.6 µM, first compound 3 µM) of 8.31% and a viability, T/C (second compound 100 µM, first compound 0.00949 µM) of 63.4%. It also gave a viability, T/C (second compound 100 µM, first compound 0.03 µM) of 44.6%, a viability, T/C (second compound 100 µM, first compound 0.0949 µM) of 34.2% and a viability, T/C (second compound 100 µM, first compound 0.3 µM) of 19.6%. It also gave a viability, T/C (second compound 100 µM, first compound 0.949 µM) of 9.06% and a viability, T/C (second compound 100 µM, first compound 3 µM) of 4.09%.
In the case of `CC(C)n1c(=O)n(C)c2cnc3cc(F)c(-c4ccc(OCCCN5CCCCC5)nc4)cc3c21`, the viability, T/C (compound 0.0316 µM) was 100% and 85.6% and 104%, the viability, T/C (compound 0.1 µM) was 98.1% and 49.6% and 104% and the viability, T/C (compound 0.316 µM) was 103% and 53.3% and 100%. For the same compound, the viability, T/C (compound 1 µM) was 103% and 47.4% and 104%, the viability, T/C (compound 3.16 µM) was 107% and 28.5% and 105% and the viability, T/C (compound 10 µM) was 102% and 11.4% and 93.3%.
With `Cn1nnc2c(C(N)=O)ncn2c1=O` the viability, T/C (compound 1 µM) was 95% [middle of 10 runs], the viability, T/C (compound 3.16 µM) was 103% [middle of 10 runs] and the viability, T/C (compound 10 µM) was 99.7% [middle of 10 runs]. The pIC50 (compound alone, run of 11/07/2019) was < 4.00 and 4.72 and 4.04.
In the case of `COc1cc(C)[nH]c(=O)c1CN1CCc2c(Cl)cc(C(OC)C3COC3)c(Cl)c2C1=O` (stereo not given) + CC[C@@]1(O)C(=O)OCc2c1cc1n(c2=O)Cc2cc3c(CN(C)C)c(O)ccc3nc2-1, the pIC50 [1] was less than 5.00, the pIC50 [2] was greater than 7.50 and the pIC50 [3] was greater than 7.50. It also gave a pIC50 [4] greater than 7.50, a pIC50 [5] greater than 7.50 and a viability, T/C [6] of 92.3%. It also gave a viability, T/C [7] of 88.3%, a viability, T/C [8] of 82.6% and a viability, T/C [9] of 79.3%. It also gave a viability, T/C [10] of 80.6%, a viability, T/C [11] of 73.7% and a viability, T/C [12] of 32.3%. The viability, T/C [13] was 19.7%, the viability, T/C [14] was 19.2% and the viability, T/C [15] was 19.4%. It also gave a viability, T/C [16] of 17.3%, a viability, T/C [17] of 18.6% and a viability, T/C [18] of 3.49%. The viability, T/C [19] was 3.03%, the viability, T/C [20] was 3.24% and the viability, T/C [21] was 2.91%. It also gave a viability, T/C [22] of 3.73%, a viability, T/C [23] of 3.6% and a viability, T/C [24] of 2.58%. It also gave a viability, T/C [25] of 2.48%, a viability, T/C [26] of 2.58% and a viability, T/C [27] of 2.45%. For the same compound, the viability, T/C [28] was 2.45%, the viability, T/C [29] was 3.12% and the viability, T/C [30] was 2.06%. For the same compound, the viability, T/C [31] was 2.39%, the viability, T/C [32] was 2.29% and the viability, T/C [33] was 1.79%. For the same compound, the viability, T/C [34] was 2.16% and the viability, T/C [35] was 2.06%.
Compound `CC1COCCN1c1cc(-c2ccnn2C)c2ccnc(-c3ccn[nH]3)c2n1` (stereo not given) + CC[C@@]1(O)C(=O)OCc2c1cc1n(c2=O)Cc2cc3c(CN(C)C)c(O)ccc3nc2-1 has a pIC50 [1] greater than 7.50, a pIC50 [2] greater than 7.50 and a pIC50 [3] greater than 7.50. For the same compound, the pIC50 [4] was greater than 7.50, the pIC50 [5] was greater than 7.50 and the viability, T/C [6] was 16.2%. It also gave a viability, T/C [7] of 9.61%, a viability, T/C [8] of 6.33% and a viability, T/C [9] of 5.32%. The viability, T/C [10] was 2.8%, the viability, T/C [11] was 3.12% and the viability, T/C [12] was 6.81%. For the same compound, the viability, T/C [13] was 5.86%, the viability, T/C [14] was 5.29% and the viability, T/C [15] was 3.16%. For the same compound, the viability, T/C [16] was 2.62%, the viability, T/C [17] was 4.77% and the viability, T/C [18] was 3.3%. For the same compound, the viability, T/C [19] was 3.5%, the viability, T/C [20] was 3.31% and the viability, T/C [21] was 2.97%. The viability, T/C [22] was 2.42%, the viability, T/C [23] was 2.82% and the viability, T/C [24] was 2.58%. The viability, T/C [25] was 2.23%, the viability, T/C [26] was 2.26% and the viability, T/C [27] was 2.14%. It also gave a viability, T/C [28] of 2.41%, a viability, T/C [29] of 2.01% and a viability, T/C [30] of 2.18%. The viability, T/C [31] was 2.1%, the viability, T/C [32] was 2.02% and the viability, T/C [33] was 2.7%. It also gave a viability, T/C [34] of 1.91% and a viability, T/C [35] of 1.92%.
